In patent US20120065173A1 (priority 2006, published 2012):

Target: T1, recombinant human GR (Homo sapiens, UniProt P04150)
T1 construct: purchased Panvera/Invitrogen P2812 (kit P2893)
T1 sequence (P04150 1-777): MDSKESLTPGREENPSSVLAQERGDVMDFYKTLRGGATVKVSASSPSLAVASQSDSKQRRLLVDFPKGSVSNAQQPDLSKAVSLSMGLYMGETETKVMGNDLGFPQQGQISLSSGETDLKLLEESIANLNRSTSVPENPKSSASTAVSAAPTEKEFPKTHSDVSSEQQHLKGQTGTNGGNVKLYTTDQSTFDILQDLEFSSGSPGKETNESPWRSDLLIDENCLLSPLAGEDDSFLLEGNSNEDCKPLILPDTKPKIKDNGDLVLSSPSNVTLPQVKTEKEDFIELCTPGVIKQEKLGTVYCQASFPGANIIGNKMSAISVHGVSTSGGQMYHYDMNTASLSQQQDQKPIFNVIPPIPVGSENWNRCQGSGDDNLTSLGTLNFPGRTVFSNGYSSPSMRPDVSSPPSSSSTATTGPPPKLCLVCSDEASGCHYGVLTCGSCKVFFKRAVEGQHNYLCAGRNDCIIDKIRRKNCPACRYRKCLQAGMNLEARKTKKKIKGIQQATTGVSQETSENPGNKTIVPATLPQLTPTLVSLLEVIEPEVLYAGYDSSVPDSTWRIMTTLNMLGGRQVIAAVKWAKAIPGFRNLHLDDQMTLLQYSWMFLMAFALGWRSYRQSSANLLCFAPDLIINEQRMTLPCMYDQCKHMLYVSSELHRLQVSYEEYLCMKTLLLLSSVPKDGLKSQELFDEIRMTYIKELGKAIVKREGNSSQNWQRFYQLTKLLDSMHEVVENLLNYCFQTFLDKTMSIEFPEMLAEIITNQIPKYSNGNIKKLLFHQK
Assay: Human Glucocorticoid Receptor (GR) Assay, fluorescence polarization (GRhuFL_FP_v2)
Format: binding
Settings: GS Red tracer, 2 hours at room temperature, 100% control 10 μM Dexamethasone
Experimental: Human Glucocorticoid Receptor (GR) Assay
The assay is based on a commercial kit from Panvera/Invitrogen (Part number P2893). The assay technology is fluorescence polarization. […] The GR and Stabilizing Peptide reagents are stored at −70° C. while the GS Red is stored at −20° C. Also included in the kit are 1M DTT (Panvera, Part number P2325, stored at −20° C.) and GR Screening buffer 10× (Panvera, Part number P2814, stored at −70° C. initially but once thawed stored at room temperature). Avoid repeated freeze/thaws for all reagents. The GR Screening buffer 10× comprises 100 mM potassium phosphate, 200 mM sodium molybdate, 1 mM EDTA and 20% DMSO.
0% control was 100% DMSO and 100% control was 10 μM Dexamethasone. Background solution (8 μL; assay buffer 10×, Stabilizing Peptide, DTT and ice cold MQ water) was added to the background wells. GS Red solution (7 μL; assay buffer 10×, Stabilizing Peptide, DTT, GS Red and ice cold water) was added to all wells except background wells. GR solution (7 μL; assay buffer 10×, Stabilizing Peptide, DTT, GR and ice cold water) was added to all wells. The plate was sealed and incubated in a dark at room temperature for 2 hours.

C[C@H](NS(=O)(=O)C1CC1)[C@H](Oc1cc2cnn(-c3ccc(F)cc3)c2cc1Cl)c1ccc(F)cc1 (racemic) [Example 35, N-[(1RS,2SR)-1-[6-chloro-1-(4-fluorophenyl)indazol-5-yl]oxy-1-(4-fluorophenyl)propan-2-yl]cyclopropanesulfonamide]
IC50: 6.2 nM

CC(NS(=O)(=O)C1CC1)C(Oc1cc2cnn(-c3ccc(F)cc3)c2cc1Cl)c1ccc(F)cc1 (racemic) [Example 36, N-[(1RS,2RS)-1-[6-chloro-1-(4-fluorophenyl)indazol-5-yl]oxy-1-(4-fluorophenyl)propan-2-yl]cyclopropanesulfonamide]
IC50: 4.3 nM

C[C@H](NS(=O)(=O)C1CC1)[C@H](Oc1cccc2c1cnn2-c1ccc(F)cc1)c1ccccc1 [Example 3, N-[(1R,2S)-1-[1-(4-fluorophenyl)indazol-4-yl]oxy-1-phenyl-propan-2-yl]cyclopropanesulfonamide]
IC50: 90 nM

C[C@H](NS(=O)(=O)C1CC1)[C@H](Oc1ccc2c(cnn2-c2ccc(F)nc2)c1)c1ccccc1 [Example 4, N-[(1R,2S)-1-[1-(6-fluoropyridin-3-yl)indazol-5-yl]oxy-1-phenyl-propan-2-yl]cyclopropanesulfonamide]
IC50: 4.9 nM

C[C@H](NS(=O)(=O)Cc1ccccc1)[C@H](Oc1ccc2c(cnn2-c2ccc(F)cc2)c1)c1ccccc1 [Example 6, N-[(1R,2S)-1-[1-(4-fluorophenyl)indazol-5-yl]oxy-1-phenyl-propan-2-yl]-1-phenyl-methanesulfonamide]
IC50: 5.9 nM

C[C@H](NS(=O)(=O)N(C)C)[C@H](Oc1ccc2c(cnn2-c2ccc(F)cc2)c1)c1ccccc1 [Example 8]
IC50: 4.6 nM

C[C@H](NS(=O)(=O)CCN1C(=O)c2ccccc2C1=O)[C@H](Oc1ccc2c(cnn2-c2ccc(F)cc2)c1)c1ccccc1 [Example 10, 2-(1,3-Dioxoisoindol-2-yl)-N-[(1R,2S)-1-[1-(4-fluorophenyl)indazol-5-yl]oxy-1-phenyl-propan-2-yl]ethanesulfonamide]
IC50: 6.5 nM

COc1ccc(OCCCS(=O)(=O)N[C@@H](C)[C@H](Oc2ccc3c(cnn3-c3ccc(F)cc3)c2)c2ccccc2)cc1 [Example 11, N-[(1R,2S)-1-[1-(4-fluorophenyl)indazol-5-yl]oxy-1-phenyl-propan-2-yl]-3-(4-methoxyphenoxy)propane-1-sulfonamide]
IC50: 6.9 nM

CCS(=O)(=O)N[C@@H](C)[C@H](Oc1ccc2c(cnn2-c2ccc(F)cc2)c1)c1ccccc1 [Example 12, N-[(1R,2S)-1-[1-(4-fluorophenyl)indazol-5-yl]oxy-1-phenyl-propan-2-yl]ethanesulfonamide]
IC50: 2.8 nM

CCCC(C)S(=O)(=O)N[C@@H](C)[C@H](Oc1ccc2c(cnn2-c2ccc(F)cc2)c1)c1ccccc1 (stereo partly drawn) [Example 13, N-[(1R,2S)-1-[1-(4-fluorophenyl)indazol-5-yl]oxy-1-phenyl-propan-2-yl]pentane-2-sulfonamide]
IC50: 5 nM

CCCCS(=O)(=O)N[C@@H](C)[C@H](Oc1ccc2c(cnn2-c2ccc(F)cc2)c1)c1ccccc1 [Example 15]
IC50: 5.4 nM

C[C@H](NS(=O)(=O)CCC(F)(F)F)[C@H](Oc1ccc2c(cnn2-c2ccc(F)cc2)c1)c1ccccc1 [Example 18, 3,3,3-trifluoro-N-[(1R,2S)-1-[1-(4-fluorophenyl)indazol-5-yl]oxy-1-phenyl-propan-2-yl]propane-1-sulfonamide]
IC50: 4.3 nM

COC(=O)CCS(=O)(=O)N[C@@H](C)[C@H](Oc1ccc2c(cnn2-c2ccc(F)cc2)c1)c1ccccc1 [Example 19, Methyl 3-[[(1R,2S)-1-[1-(4-fluorophenyl)indazol-5-yl]oxy-1-phenyl-propan-2-yl]sulfamoyl]propanoate]
IC50: 5.1 nM

C[C@H](NS(=O)(=O)CC1CCCC1)[C@H](Oc1ccc2c(cnn2-c2ccc(F)cc2)c1)c1ccccc1 [Example 20, 1-Cyclopentyl-N-[(1R,2S)-1-[1-(4-fluorophenyl)indazol-5-yl]oxy-1-phenyl-propan-2-yl]methanesulfonamide]
IC50: 8.7 nM

C[C@H](NS(=O)(=O)C1CCCC1)[C@H](Oc1ccc2c(cnn2-c2ccc(F)cc2)c1)c1ccccc1 [Example 21, N-[(1R,2S)-1-[1-(4-fluorophenyl)indazol-5-yl]oxy-1-phenyl-propan-2-yl]cyclopentanesulfonamide]
IC50: 9.9 nM

C[C@H](NS(=O)(=O)CC(F)(F)F)[C@H](Oc1ccc2c(cnn2-c2ccc(F)cc2)c1)c1ccccc1 [Example 22, 2,2,2-trifluoro-N-[(1R,2S)-1-[1-(4-fluorophenyl)indazol-5-yl]oxy-1-phenyl-propan-2-yl]ethanesulfonamide]
IC50: 2.7 nM

C[C@H](NS(=O)(=O)CC1CCCCC1)[C@H](Oc1ccc2c(cnn2-c2ccc(F)cc2)c1)c1ccccc1 [Example 23, 1-Cyclohexyl-N-[(1R,2S)-1-[1-(4-fluorophenyl)indazol-5-yl]oxy-1-phenyl-propan-2-yl]methanesulfonamide]
IC50: 9.5 nM

CCCCCCS(=O)(=O)N[C@@H](C)[C@H](Oc1ccc2c(cnn2-c2ccc(F)cc2)c1)c1ccccc1 [Example 24, N-[(1R,2S)-1-[1-(4-fluorophenyl)indazol-5-yl]oxy-1-phenyl-propan-2-yl]hexane-1-sulfonamide]
IC50: 7.6 nM

C[C@H](NS(=O)(=O)c1cccnc1)[C@H](Oc1ccc2c(cnn2-c2ccc(F)cc2)c1)c1ccccc1 [Example 25, N-[(1R,2S)-1-[1-(4-fluorophenyl)indazol-5-yl]oxy-1-phenyl-propan-2-yl]pyridine-3-sulfonamide]
IC50: 7 nM

Cc1ccc(-n2ncc3cc(O[C@H](c4ccccc4)C(C)(C)NS(=O)(=O)C4CC4)ccc32)cc1 [Example 26, (R)—N-(2-methyl-1-phenyl-1-(1-p-tolyl-1H-indazol-5-yloxy)propan-2-yl)cyclopropanesulfonamide]
IC50: 77 nM

CC(C)n1ncc2cc(O[C@H](c3ccccc3)[C@H](C)NS(C)(=O)=O)ccc21 [Example 30, N-[(1R,2S)-1-phenyl-1-(1-propan-2-ylindazol-5-yl)oxy-propan-2-yl]methanesulfonamide]
IC50: 330 nM

C[C@H](NS(=O)(=O)C1CC1)[C@H](Oc1ccc2c(cnn2-c2ccc(F)cc2)c1)c1ccc([S+](C)[O-])cc1 (stereo partly drawn) [Example 31, N-[(1R,2S)-1-[1-(4-fluorophenyl)indazol-5-yl]oxy-1-(4-methylsulfinylphenyl)propan-2-yl]cyclopropanesulfonamide]
IC50: 6.4 nM

C[C@H](NS(=O)(=O)C1CC1)[C@H](Oc1ccc2c(cnn2C2CCCC2)c1)c1ccccc1 [Example 32, N-[(1R,2S)-1-(1-cyclopentylindazol-5-yl)oxy-1-phenyl-propan-2-yl]cyclopropanesulfonamide]
IC50: 7.6 nM

CC(C)n1ncc2cc(O[C@H](c3ccccc3)[C@H](C)NS(=O)(=O)C3CC3)ccc21 [Example 33, N-[(1R,2S)-1-phenyl-1-(1-propan-2-ylindazol-5-yl)oxy-propan-2-yl]cyclopropanesulfonamide]
IC50: 170 nM

O=S(=O)(NC[C@H](Sc1ccc2c(cnn2-c2ccc(F)cc2)c1)c1ccccc1)C1CC1 [Example 37, (R)—N-[2-[1-(4-fluorophenyl)indazol-5-yl]sulfanyl-2-phenyl-ethyl]cyclopropanesulfonamide]
IC50: 17 nM

C[C@H](NS(C)(=O)=O)[C@H](Sc1ccc2c(cnn2-c2ccc(F)cc2)c1)c1ccccc1 [Example 38, N-((1R,2S)-1-(1-(4-fluorophenyl)-1H-indazol-5-ylthio)-1-phenylpropan-2-yl)methanesulfonamide]
IC50: 4.8 nM

C[C@H](NS(C)(=O)=O)[C@@H](c1ccccc1)S(=O)(=O)c1ccc2c(cnn2-c2ccc(F)cc2)c1 [Example 39]
IC50: 280 nM

O=S(=O)(NC[C@H](Oc1ccc2c(cnn2-c2ccc(F)cc2)c1)c1ccccc1)C1CC1 [Example 40, N-[(2R)-2-[1-(4-fluorophenyl)indazol-5-yl]oxy-2-phenyl-ethyl]cyclopropanesulfonamide]
IC50: 13 nM

O=S(=O)(NC[C@@H](Oc1ccc2c(cnn2-c2ccc(F)cc2)c1)c1ccccc1)C1CC1 [Example 41, N-[(2S)-2-[1-(4-fluorophenyl)indazol-5-yl]oxy-2-phenyl-ethyl]cyclopropanesulfonamide]
IC50: 250 nM
